Measurements reported in patent US9957271B2, “Substituted bicyclic aza-heterocycles and analogues as sirtuin modulators” (GlaxoSmithKline, LLC, priority 2012, dated 2018).

Experiments:
SIRT1 [1] = target: T1, SIRT1 (Homo sapiens, UniProt Q96EB6); assay: Trp mass spectrometry assay of SIRT1 activity; type: biochemical; details: Trp assay; for Trp EC1.5 (μM): concentration giving 150% activation of SIRT1; for Emax: percent maximum fold activation, read-out: Trp % Fold Act
T1 sequence (Q96EB6 1-747): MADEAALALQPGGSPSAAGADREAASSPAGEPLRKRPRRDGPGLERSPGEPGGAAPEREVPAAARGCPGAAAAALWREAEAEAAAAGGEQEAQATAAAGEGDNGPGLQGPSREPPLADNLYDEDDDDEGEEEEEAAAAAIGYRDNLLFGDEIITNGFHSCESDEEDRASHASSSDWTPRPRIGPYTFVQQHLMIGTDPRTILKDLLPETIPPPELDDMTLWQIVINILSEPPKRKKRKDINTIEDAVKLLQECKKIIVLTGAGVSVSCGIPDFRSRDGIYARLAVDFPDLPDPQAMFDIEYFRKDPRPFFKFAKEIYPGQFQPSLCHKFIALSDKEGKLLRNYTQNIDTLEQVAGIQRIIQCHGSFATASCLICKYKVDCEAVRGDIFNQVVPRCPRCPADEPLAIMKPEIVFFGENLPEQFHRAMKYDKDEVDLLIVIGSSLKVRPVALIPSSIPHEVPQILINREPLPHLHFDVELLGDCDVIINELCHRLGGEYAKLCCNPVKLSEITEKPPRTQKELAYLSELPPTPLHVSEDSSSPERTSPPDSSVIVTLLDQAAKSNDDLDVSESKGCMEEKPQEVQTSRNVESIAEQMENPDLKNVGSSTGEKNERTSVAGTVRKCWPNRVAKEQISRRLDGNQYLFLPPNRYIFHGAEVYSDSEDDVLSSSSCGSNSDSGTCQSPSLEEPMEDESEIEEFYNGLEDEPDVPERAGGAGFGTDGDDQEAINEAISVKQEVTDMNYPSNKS
Source text: Mass spectrometry based assays were used to identify modulators of SIRT1 activity. The TAMRA based assay utilized a peptide having 20 amino acid residues as follows: Ac-EE-K(biotin)-[…](Ac)NleSTEG-K(5TMR)-EE-NH2 (SEQ ID NO: 1), wherein K(Ac) is an acetylated lysine residue and Nle is a norleucine. The peptide was labeled with the fluorophore 5TMR (excitation 540 nm/emission 580 nm) at the C-terminus. The sequence of the peptide substrate was based on p53 with several modifications. In addition, the methionine residue naturally present in the sequence was replaced with the norleucine because the methionine may be susceptible to oxidation during synthesis and purification. The Trp based assay utilized a peptide having an amino acid residues as follows: Ac-R-H-K-K(Ac)-W-NH2 (SEQ ID NO: 2).
The Trp mass spectrometry assay was conducted as follows. 0.5 μM peptide substrate and 120 μM βNAD^+ were incubated with 10 nM SIRT1 for 25 minutes at 25° C. in a reaction buffer (50 mM HEPES pH 7.5, […], 1 mM DTT, 0.05% BSA). The SIRT1 protein was obtained by cloning the SirT1 gene into a T7-promoter containing vector, which was then expressed in BL21(DE3) bacterial cells and purified as described in further detail below. Test compound was added at varying concentrations to this reaction mixture and the resulting reactions were monitored. After the 25 minute incubation with SIRT1, 10 μL of 10% formic acid was added to stop the reaction. The resulting reactions were sealed and frozen for later mass spec analysis. The relative SIRT1 activity was then determined by measuring the amount of O-acetyl-ADP-ribose (OAADPR) formed (or, alternatively, the amount of deacetylated Trp peptide generated) by the NAD-dependent sirtuin deacetylation reaction in the presence of varying concentrations of the test compound versus control reactions lacking the test compound. The degree to which the test agent activated deacetylation by SIRT1 was expressed as EC1.5 (i.e., the concentration of compound required to increase SIRT1 activity by 50% over the control lacking test compound), and Percent Maximum Activation (i.e., the maximum activity relative to control (100%) obtained for the test compound).
A control for inhibition of sirtuin activity was conducted by adding 1 μL of 500 mM nicotinamide as a negative control at the start of the reaction (e.g., permits determination of maximum sirtuin inhibition). A control for activation of sirtuin activity was conducted using 10 nM of sirtuin protein, with 1 μL of DMSO in place of compound, to determine the amount of deacetylation of the substrate at a given time point within the linear range of the assay. This time point was the same as that used for test compounds and, within the linear range, the endpoint represents a change in velocity.
For the above assay, SIRT1 protein was expressed and purified as follows. The SirT1 gene was cloned into a T7-promoter containing vector and transformed into BL21(DE3). The protein was expressed by induction with 1 mM IPTG as an N-terminal His-tag fusion protein at 18° C. overnight and harvested at 30,000×g. Cells were lysed with lysozyme in lysis buffer (50 mM Tris-HCl, 2 mM Tris[2-carboxyethyl]phosphine (TCEP), 10 μM ZnCl2, 200 mM NaCl) and further treated with sonication for […] for complete lysis. The protein was purified over a Ni-NTA column (Amersham) and fractions containing pure protein were pooled, concentrated and run over a sizing column (Sephadex S200 26/60 global). The peak containing soluble protein was collected and run on an Ion-exchange column (MonoQ). Gradient elution (200 mM-500 mM NaCl) yielded pure protein. This protein was concentrated and dialyzed against dialysis buffer (20 mM Tris-HCl, 2 mM TCEP) overnight. The protein was aliquoted and frozen at −80° C. until further use.

SIRT1 [2] = target: T1, SIRT1; assay: TAMRA based mass spectrometry assay of SIRT1 activity; type: biochemical; details: TAMRA assay; for TAMRA EC1.5 (μM): concentration giving 150% activation of SIRT1; for Emax: percent maximum fold activation, read-out: TAMRA % Fold Act
Summary of the method: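 Deacetylation of a biotinylated, TAMRA-tagged p53-based peptide (0.5 μM) by 10 nM His-tagged SIRT1 with 120 μM βNAD+, 25 °C for 25 min, pH 8 Tris-acetate buffer, across a compound concentration range. Quenched by formic acid and read by mass spec as product peptide or OAADPR; activity relative to DMSO reactions, nicotinamide defining maximal inhibition.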

Trp EC1.5 (μM) (SIRT1 [1]) | Emax (SIRT1 [1]) [%] | TAMRA EC1.5 (μM) (SIRT1 [2]) | Emax (SIRT1 [2]) [%] | SMILES
B (EC1.5 1-25 μM) | < 350 | – | – | O=C(Nc1cnc2ccc(-c3ccccc3OC(F)(F)F)nn12)c1cnccn1 [Compound 314]
– | – | A (EC1.5<1 μM) | ≥ 350 | COc1ccc(NC(=O)c2c(C)nc3ccc(-c4ccccc4Br)nn23)nn1 [Compound 765]
– | – | A (EC1.5<1 μM) | ≥ 350 | Cc1nn2ccc(-c3ccccc3C(F)(F)F)nc2c1C(=O)Nc1cncc(F)c1 [Compound 768]
– | – | A (EC1.5<1 μM) | ≥ 350 | O=C(Nc1cnn2ccc(-c3ccccc3OC(F)(F)F)nc12)c1cccc(-n2cnnc2)n1 [Compound 769]
– | – | A (EC1.5<1 μM) | ≥ 350 | CC(C)c1csc(C(=O)Nc2cnn3ccc(-c4ccccc4OC(F)(F)F)nc23)n1 [Compound 771]
– | – | A (EC1.5<1 μM) | < 350 | Cc1nc2ccc(-c3ccccc3OC[C@H](O)CO)nn2c1C(=O)Nc1ccncn1 [Compound 774]
– | – | A (EC1.5<1 μM) | ≥ 350 | Cc1nc2ccc(-c3ccccc3OC[C@H](O)CO)nn2c1C(=O)Nc1cnccn1 [Compound 775]
– | – | A (EC1.5<1 μM) | ≥ 350 | Cc1cc(C)nc(NC(=O)c2c(C)nn3ccc(-c4ccccc4C(F)(F)F)nc23)n1 [Compound 777]
– | – | A (EC1.5<1 μM) | ≥ 350 | O=C(Nc1cnn2ccc(-c3ccccc3OC(F)(F)F)nc12)c1nc2c(s1)CCCC2 [Compound 780]
– | – | B (EC1.5 1-25 μM) | ≥ 350 | O=C(Nc1cnn2ccc(-c3ccccc3OC(F)(F)F)nc12)c1nccs1 [Compound 781]
– | – | A (EC1.5<1 μM) | ≥ 350 | O=C(Nc1cnn2ccc(-c3ccccc3C(F)(F)F)nc12)c1cncc(OC[C@@H](O)CO)n1 [Compound 783]
– | – | A (EC1.5<1 μM) | ≥ 350 | CCOc1nccc(NC(=O)c2c(C)nn3ccc(-c4ccccc4C(F)(F)F)nc23)n1 [Compound 786]
– | – | A (EC1.5<1 μM) | ≥ 350 | Cc1cc(NC(=O)c2c(C)nn3ccc(-c4ccccc4C(F)(F)F)nc23)nc(C)n1 [Compound 787]
– | – | A (EC1.5<1 μM) | ≥ 350 | Cc1nn2ccc(-c3ccccc3C(F)(F)F)nc2c1C(=O)Nc1ccncc1F [Compound 789]
– | – | A (EC1.5<1 μM) | ≥ 350 | Cc1cc(C)nc(NC(=O)c2cnc3ccc(-c4ccccc4OC[C@H](O)CO)nn23)c1 [Compound 792]
– | – | A (EC1.5<1 μM) | ≥ 350 | COc1nccc(NC(=O)c2c(C)nn3ccc(-c4ccccc4C(F)(F)F)nc23)n1 [Compound 793, N-(2-methoxypyrimidin-4-yl)-2-methyl-5-(2-(trifluoromethyl)phenyl)pyrazolo[1,5-a]pyrimidine-3-carboxamide]
– | – | A (EC1.5<1 μM) | ≥ 350 | Cc1cc(C(=O)Nc2cnn3ccc(-c4ccccc4C(F)(F)F)nc23)nc(C)n1 [Compound 795]
– | – | A (EC1.5<1 μM) | ≥ 350 | Cc1ccnc(NC(=O)c2c(C)nc3ccc(-c4cccc(OC[C@H](O)CO)c4)nn23)c1 [Compound 798]

Trp EC1.5 (μM) (SIRT1 [1]) | Emax (SIRT1 [1]) [%] | TAMRA EC1.5 (μM) (SIRT1 [2]) | Emax (SIRT1 [2]) [%] | SMILES
– | – | A (EC1.5<1 μM) | ≥ 350 | Cc1cc(C)nc(C(=O)Nc2cnn3ccc(-c4ccccc4C(F)(F)F)nc23)n1 [Compound 801]
– | – | A (EC1.5<1 μM) | ≥ 350 | Cc1cccc(NC(=O)c2cnc3ccc(-c4ccccc4OC[C@H](O)CO)nn23)n1 [Compound 804]
– | – | A (EC1.5<1 μM) | ≥ 350 | Cc1cc(NC(=O)c2cnc3ccc(-c4ccccc4OC[C@H](O)CO)nn23)cc(C)n1 [Compound 805]
– | – | A (EC1.5<1 μM) | ≥ 350 | CCOc1nccc(NC(=O)c2cnn3ccc(-c4ccccc4C(F)(F)F)nc23)n1 [Compound 807]
– | – | A (EC1.5<1 μM) | ≥ 350 | O=C(Nc1cnn2ccc(-c3ccccc3C(F)(F)F)nc12)c1nc2c(s1)CCCC2 [Compound 810]
– | – | A (EC1.5<1 μM) | ≥ 350 | Cc1ccnc(NC(=O)c2cnc3ccc(-c4ccccc4OC[C@H](O)CO)nn23)c1 [Compound 811]
– | – | A (EC1.5<1 μM) | ≥ 350 | O=C(Nc1cc(O)ncn1)c1cnn2ccc(-c3ccccc3C(F)(F)F)nc12 [Compound 813]
– | – | A (EC1.5<1 μM) | ≥ 350 | Cc1ccnc(NC(=O)c2c(C)nc3ccc(-c4ccccc4OC[C@H](O)CO)nn23)c1 [Compound 817]
– | – | A (EC1.5<1 μM) | ≥ 350 | Cc1nc2ccc(-c3ccccc3OC[C@H](O)CO)nn2c1C(=O)Nc1ccc(F)cn1 [Compound 819]
– | – | A (EC1.5<1 μM) | < 350 | Cc1nc2ccc(-c3cccc(OC[C@H](O)CO)c3)nn2c1C(=O)Nc1ccncc1F [Compound 822]
A (EC1.5<1 μM) | ≥ 350 | – | – | Cc1cc(C)nc(NC(=O)c2c(C)nc3c(OC[C@H](O)CO)cc(-c4ccccc4C(F)(F)F)nn23)c1 [Compound 834]
A (EC1.5<1 μM) | ≥ 350 | – | – | Cc1nc2c(OC[C@H](O)CO)cc(-c3ccccc3C(F)(F)F)nn2c1C(=O)Nc1ccc(F)cn1 [Compound 835]
B (EC1.5 1-25 μM) | ≥ 350 | – | – | O=C(Nc1ccccn1)c1cnc2ccc(N3CC[C@H](F)C3)nn12 [Compound 836]
B (EC1.5 1-25 μM) | < 350 | – | – | O=C(Nc1cccnc1)c1cnc2ccc(N3CC[C@H](F)C3)nn12 [Compound 837]
B (EC1.5 1-25 μM) | < 350 | – | – | O=C(Nc1ccc(F)cn1)c1cnc2ccc(N3CC[C@H](F)C3)nn12 [Compound 838]
B (EC1.5 1-25 μM) | < 350 | – | – | O=C(Nc1ccncc1F)c1cnc2ccc(N3CC[C@H](F)C3)nn12 [Compound 839]
B (EC1.5 1-25 μM) | ≥ 350 | – | – | Cc1nc2ccc(N3CC[C@H](F)C3)nn2c1C(=O)Nc1ccccn1 [Compound 840]
